Data taken from patent US20110257146A1, “Method of Treating Kcnq Related Disorders Using Organozinc Compounds” (The johns Hopkins University, priority 2006, published 2011).
Like-named read-outs stand apart in the source and are kept apart here.

Experiments:
[1] = test system: hippocampal neurons; assay: Membrane potential and elicited action potentials of isolated hippocampal neurons; type: cell-based, rat; conditions: 15 μM linopirdine added after 10 μM ZnPy
Description: FIG. 10. ZnPy potentiation of native M-current. A. M current recorded from an isolated rat dorsal root ganglion neuron, Vh was −60 mV, stepped to −20 mV, followed by a step to −50 mV, and stepped back to −20 mV. B. Histograms show M-current amplitudes in the presence and absence of 10 μM ZnPy (n=10, * p<0.001). M-current amplitudes were measured by fitting the IM relaxation with an exponential equation. The recording bath solution includes 1 μM TTX, 0.2 mM TEA, 1 mM 4-AP, 50 μM CNQX, and 10 μM bicuculline. C. Membrane potential of an isolated hippocampal neuron was monitored when 10 μM ZnPy was applied in bath solution followed by the addition of 15 μM linopirdine. D. Action potentials elicited by 200 pA current injection to a patched hippocampal neuron. The ZnPy treatments are as indicated.
Neuron Culture—Dorsal root ganglia (DRG) was collected from fourteen-day-old CD rat and incubated in collagenase (sigma, 500 U/ml, 15 min) and then trypsin (Sigma, 1 mg/ml, 30 min) at 37° C. Single DRG neurons were isolated by mechanical trituration with a fire-polished glass Pasteur pipette. Hippocampal tissue was dissected out from CD rat postnatal day 0. The tissue was digested with papain (Worthington Biochem, 20 U/ml, 30 min) and resuspended into single cells. The single-cell suspension was plated onto a monolayer of glial cells that were growing on coated cover slips. Cytosine-1-D-arabinofuranoside at 5 μM was added into the culture medium 24-48 hours later to arrest glial cell proliferation. The culture medium consisted of Neurobasal™ medium with B-27 supplement (Gibco), penicillin/streptomycin and 2 mM L-glutamine. All cells were maintained at 37° C. with 5% CO2 prior to recording.
Electrophysiological Recording—Standard whole-cell recording was used. Pipettes were pulled from borosilicate glass capillaries (TW150-4, World Precision Instruments, Sarasota, Fla.). […] Current and voltage were recorded using an Axopatch-200A amplifier, filtered at 1 kHz and digitized using a DigiData 1322A with pClamp 9.2 software (Axon Instruments, Foster City, Calif.). […]

[2] = target: T1, KCNQ2 (Rattus norvegicus, UniProt O88943); assay: Whole-cell voltage clamp of CHO cells expressing KCNQ2; type: cell-based; parameters: expressed in transfected cells; host or cells: CHO cells; conditions: for effect on KCNQ2 current amplitude of metal salt added to sodium pyrithione perfusion: metal salt (ZnSO4 10 μM) supplemented to 20 μM sodium pyrithione
Description: Cell culture and transient transfection—Chinese Hamster Ovary (CHO) cells were grown in 50/50 DMEM/F12 (Cellgro) with 10% FBS (Gibco), 100 U/ml penicillin (Cellgro), 100 μg/ml streptomycin (Cellgro) and 2 mM L-glutamine (Gibco). At 24 hours before transfection, cells were split and plated in 60 mm dishes and were transfected with Lipofectamine2000™ reagent (Invitrogen) according to the manufacturer's instruction. At 24 hours after transfection, cells were split and re-plated onto coverslips coated with poly-L-lysine (Sigma). Plasmid expressing CD4 cDNA as a marker was cotransfected with the channel cDNAs of hKCNQ1 (from Dr. Michael Sanguinetti), hKCNQ4 (from Dr. Vitya Vardanyan), rKCNQ2, rKCNQ3, and hKCNQ5 (from Drs. David McKinnon, Mark Shapiro, and Thomas Jentsch). Prior to recording, anti-CD4 Dynabeads (Dynal. Biotech. Inc.) were added into the medium to allow for identification of the transfected cells. Stable lines expressing Kv2.1, hERG, and Kv4.2 were generated by standard protocols using pcDNA3.1 and maintained at complete medium supplemented with 500 μg/ml G418. The N-type calcium channel stable line was a kind gift from Drs. Diane Lipscombe and David Yue.
(§1) Electrophysiological Recording—Standard whole-cell recording was used. Pipettes were pulled from borosilicate glass capillaries (TW150-4, World Precision Instruments, Sarasota, Fla.). When filled with the intracellular solution, the pipettes have resistances of […]. During the recording, constant perfusion of extracellular solution was maintained using a BPS perfusion system (ALA, Westbury, N.Y.). Pipette solution contained (mM): KCl 145, MgCl2 1, EGTA 5, HEPES 10, MgATP 5 (pH 7.3); extracellular solution contained (mM): NaCl 140, KCl 3, CaCl2 2, MgCl2 1.5, HEPES 10, glucose 10 (pH 7.4). Current and voltage were recorded using an Axopatch-200A amplifier, filtered at 1 kHz and digitized using a DigiData 1322A with pClamp 9.2 software (Axon Instruments, Foster City, Calif.). Series resistance compensation was also used and set to 60-80%.
Data and Statistical Analysis—Patch-clamp data were preprocessed using Clampfit 9.2 (Axon Instruments, Foster City, Calif.) and then analyzed in Origin 7 (OriginLab, Northampton, Mass.). The activation curve was fitted by the Boltzmann equation: G=(Gmax−Gmin)/[1+exp[(V−V1/2)/S]]+Gmin, where Gmax is the maximum conductance, Gmin is the minimum conductance, V1/2 is the voltage for half of the total numbers of channels to open, and S is the slope factor. The dose response curve was fitted by the Hill equation: E=Emax/(1+(EC50/C)^P), where Emax is the maximum response, C is the drug concentration, EC50 is the drug concentration producing half of the maximum response, and P is the Hill coefficient. The deactivation trace was fitted by the standard exponential equation: I(t)=ΣIi*exp(−t/τi), where I is the current, t is the time and τ is the time constant. Data are presented as means±SE. Significance was estimated using paired two-tailed Student's t-test.

[3] = target: T1, KCNQ2; assay: Single channel outside-out patch recording of KCNQ2; type: cell-based; parameters: expressed in transfected cells; host or cells: CHO cells; conditions: 50 μM linopirdine
Description: For single channel recording procedure, outside-out patch recording was used. The pipettes had resistances of 7-15 MΩ when filled with the intracellular solution of the following composition (mM): KCl 145, MgCl2 1, EGTA 5, HEPES 10, MgATP 5 (pH 7.3). Extracellular solution contained (mM): NaCl 150, KCl 5, CaCl2 2, MgCl2 1, HEPES 10, glucose 10 (pH 7.4). Current and voltage were recorded using an Axopatch-200B amplifier, sample at 4 kHz and filtered at 200 Hz, and digitized using a DigiData 1322A with pClamp 9.2 software (Axon Instruments, Foster City, Calif.).
The open probability (Po) and single channel current (i) were calculated by fitting all-point histograms with single- or multi-Gaussian curves. The ratio of the area under the fitted ‘open’ Gaussian to the total area under the entire Gaussian was taken as Po, and the difference between the fitted “closed” and “open” peaks was taken as i, single channel conductance (γ) was calculated by the equation: γ=i/(V−V5).

[4] = target: T2, KCNQ2(Y284C) (Rattus norvegicus, UniProt O88943, Y284C); assay: Whole-cell recording of KCNQ2(Y284C) BFNC mutant in CHO cells; type: cell-based; conditions: retigabine
T2 construct: expressed in transfected cells; host or cells: CHO cells, transient
Description: (§2) FIG. 11. ZnPy effects on BFNC mutant channels expressed in CHO cells. A. whole-cell currents of KCNQ2(R207W), KCNQ2(Y284C), and KCNQ2(A306T) were recorded in the absence (left) and presence (right) of 10 μM ZnPy, Vh was −80 mV, in 10 mV voltage steps from −70 mV to +50 mV. B. a histogram plotting potentiation effects on KCNQ2 wild type (wt) and BFNC mutants (R207W, Y284C and […]) by ZnPy (filled box) and retigabine (open box) (n≧4, * p<0.001, ** p<0.05).
(§3) Mutagenesis—Starting from KCNQ cDNAs, the KCNQ2 point mutants were constructed by recombinant PCR and verified by sequencing.
as §1, with “Series resistance compensation was also used and set to 60-80%.” left out

[5] = target: T3, KCNQ2(A306T) (Rattus norvegicus, UniProt O88943, A306T); assay: Whole-cell recording of KCNQ2(A306T) mutant in CHO cells; type: cell-based; conditions: retigabine
T3 construct: expressed in transfected cells; host or cells: CHO cells
Description: FIG. 9. KCNQ2 point mutants selectively lose ZnPy sensitivity. […] Each mutation site was indicated based on the predicted transmembrane regions. Dashed line indicates the potentiation level of wt KCNQ2 channel in the absence of ZnPy. […] C. Modeling of the S5-pore-S6 region of KCNQ2.
as §2, §3, §1

[6] = target: T4, KCNQ2(R207W) (Rattus norvegicus, UniProt O88943, R207W); assay: Whole-cell recording of KCNQ2(R207W) BFNC mutant in CHO cells; type: cell-based; conditions: retigabine
T4 construct: expressed in transfected cells; host or cells: CHO cells, transient
Description: as §2, §3
as §1, with “Series resistance compensation was also used and set to 60-80%.” left out

[7] = In vivo Geller conflict test for anxiolytics; parameters: species or system rats; conditions: positive control
Description: In the Geller conflict test (see, e.g., Geller & Seifter, Psychophamracologia 1:482-492 (1960: Pollard & Howard, Psychopharmacology 62:117-121 (1979)), rats are trained to press a lever to receive food pellets during daily 1 hour sessions. The sessions are divided into punished and unpunished phases. During the four, three-minute punished periods, a light signals that each lever press will produce both a pellet and a foot shock (punishment), which reduces lever pressing. The number of punished lever presses on test days (when test compound is administered) is compared to the mean on baseline days. The positive control, chlordiazepoxide, increases punished lever pressing by >50%. A compound that produces an increase of approximately 40% or greater is generally considered to be of interest as a rapid-onset anxiolytic.
A compound with selective KCNQ1 channel opening activity increases punished responding in a dose-dependent manner. The increase in punished responding is statistically significant (paired t-test p<0.05) at 10, 17, 30, and 56 mg/kg PO with increases of 40% or greater at 30 and 56 mg/kg.

[8] = target: TRPM8 (Homo sapiens, UniProt Q7Z2W7); conditions: shift from 32 mV; cited from earlier work
Sequence of TRPM8 (Q7Z2W7 whole entry, species assumed): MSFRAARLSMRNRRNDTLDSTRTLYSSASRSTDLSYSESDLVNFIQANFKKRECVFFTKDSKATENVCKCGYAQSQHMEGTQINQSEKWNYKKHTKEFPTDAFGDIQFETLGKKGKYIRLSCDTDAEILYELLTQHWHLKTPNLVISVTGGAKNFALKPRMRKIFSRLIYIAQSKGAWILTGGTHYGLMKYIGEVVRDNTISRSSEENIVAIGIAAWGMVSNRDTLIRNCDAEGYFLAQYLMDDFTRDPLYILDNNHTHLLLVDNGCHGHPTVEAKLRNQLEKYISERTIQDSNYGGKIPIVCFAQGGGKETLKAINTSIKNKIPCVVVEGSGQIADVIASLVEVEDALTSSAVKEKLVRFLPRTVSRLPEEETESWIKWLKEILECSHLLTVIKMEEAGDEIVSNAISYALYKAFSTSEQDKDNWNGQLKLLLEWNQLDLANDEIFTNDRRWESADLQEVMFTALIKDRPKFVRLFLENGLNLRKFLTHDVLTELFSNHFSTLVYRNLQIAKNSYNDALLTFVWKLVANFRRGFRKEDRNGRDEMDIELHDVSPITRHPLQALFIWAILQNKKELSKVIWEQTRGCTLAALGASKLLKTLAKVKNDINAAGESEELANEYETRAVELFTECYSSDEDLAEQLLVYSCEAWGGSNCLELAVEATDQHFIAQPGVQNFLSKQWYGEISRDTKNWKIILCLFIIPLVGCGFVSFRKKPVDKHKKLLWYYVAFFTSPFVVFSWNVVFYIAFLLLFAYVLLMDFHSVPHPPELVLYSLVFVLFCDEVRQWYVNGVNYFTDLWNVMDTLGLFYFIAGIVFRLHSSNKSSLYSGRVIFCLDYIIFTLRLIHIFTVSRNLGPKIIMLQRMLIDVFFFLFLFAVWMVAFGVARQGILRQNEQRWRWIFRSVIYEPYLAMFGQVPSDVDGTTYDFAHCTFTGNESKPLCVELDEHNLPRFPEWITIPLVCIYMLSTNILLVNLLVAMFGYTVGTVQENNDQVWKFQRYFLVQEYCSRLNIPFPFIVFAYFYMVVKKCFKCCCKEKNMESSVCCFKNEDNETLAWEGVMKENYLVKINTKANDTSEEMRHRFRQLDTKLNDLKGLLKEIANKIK

Structure (SMILES): O=C1N(c2ccccc2)c2ccccc2C1(Cc1ccncc1)Cc1ccncc1 [linopirdine]
- effect on ZnPy-induced hyperpolarization [1]: completely abolished the hyperpolarization of membrane potential
- effect on KCNQ2 current ([2]; 30 μM linopirdine, +50 mV): rapid inhibition
- effect on single channel activity [3]: fully blocked

Structure (SMILES): CCOC(=O)Nc1ccc(NCc2ccc(F)cc2)cc1N [Retigabine, retigabine]
- current potentiation [4]: < 50%
- current potentiation [5]: < 50%
- current potentiation [6]: < 50%

Structure (SMILES): [Zn+2] [Zn^2+]
- effect on KCNQ2 channel, zinc ion alone [2]: cannot induce any detectable effect

Structure (SMILES): CNC1=Nc2ccc(Cl)cc2C(c2ccccc2)=[N+]([O-])C1 [chlordiazepoxide]
- increase of punished lever pressing [7]: > 50%

Structure (SMILES): O=S(=O)([O-])[O-].[Cu+2] [CuSO4]
- effect on KCNQ2 current amplitude of metal salt added to sodium pyrithione perfusion [2]: did not induce any potentiation

Structure (SMILES): CC[N+](CC)(CC)CC [TEA, tetraethylammonium]
- effect on KCNQ2 current [2]: completely blocked

Structure (SMILES): Oc1ccc(N=Nc2ccccn2)c(O)c1 [PAR, 4-(2)-(pyridylazo) resorcinol]
- effect on potentiation induced by sodium pyrithione plus ZnSO4 ([2]; 100 μM PAR): abolished
- effect on KCNQ2 channel activity, compound alone ([2]; PAR itself): had no effect on KCNQ2 channel activity

Structure (SMILES): O=S(=O)([O-])[O-].[Zn+2] [ZnSO4]
- effect on KCNQ2 current amplitude of metal salt added to sodium pyrithione perfusion [2]: marked increase in current amplitude

Structure (SMILES): [Na+].[O-][n+]1ccccc1[S-] [sodium pyrithione]
- effect on KCNQ2 current amplitude [2]: no change in current amplitude

Structure (SMILES): CC1CCC(C(C)C)C(O)C1 (centres unmarked) [Menthol]
- V1/2 after menthol binding [8]: −31 mV

Structure (SMILES): Oc1c(I)cc(I)c2cccnc12 [5,7-diiodo-8-hydroxyquinoline]
- potentiation of KCNQ2 current amplitude by zinc ionophores ([2]; +50 mV): None displayed any potentiation effect on current amplitude

Structure (SMILES): [Cl][Cd][Cl] [CdCl2]
- effect on KCNQ2 current amplitude of metal salt added to sodium pyrithione perfusion [2]: did not induce any potentiation
